Consider 4 compounds from publication PMC6848746 (Psychopharmacology, 2019).

Where two headings read alike, the source gives them in different places.

For assay [1], the system named is NET. Nature of the assay: NET-mediated release of [3H]MPP+ from rat brain synaptosomes. Type of assay: biochemical. The settings on record: relative to SERT, synaptosomal release.
The target in assay [2] is T1, 5-HT1A (Homo sapiens, UniProt P08908).
T1 sequence (P08908 1-422): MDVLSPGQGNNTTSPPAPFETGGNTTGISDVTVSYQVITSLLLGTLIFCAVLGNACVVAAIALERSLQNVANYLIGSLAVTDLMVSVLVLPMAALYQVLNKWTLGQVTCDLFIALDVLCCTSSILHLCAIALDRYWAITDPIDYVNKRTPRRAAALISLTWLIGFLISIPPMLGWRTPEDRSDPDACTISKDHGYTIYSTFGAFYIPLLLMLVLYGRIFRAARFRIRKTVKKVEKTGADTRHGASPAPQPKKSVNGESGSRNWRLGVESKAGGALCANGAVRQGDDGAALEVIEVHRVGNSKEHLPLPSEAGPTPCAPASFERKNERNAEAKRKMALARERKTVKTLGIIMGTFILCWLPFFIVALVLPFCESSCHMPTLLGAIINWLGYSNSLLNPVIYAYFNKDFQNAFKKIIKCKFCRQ
The assay can be described thus: Radioligand binding.

In assay [3] the target is 5-HT1E (Homo sapiens, UniProt P28566). Nature of the assay: Radioligand binding.
Sequence of 5-HT1E (P28566 whole entry): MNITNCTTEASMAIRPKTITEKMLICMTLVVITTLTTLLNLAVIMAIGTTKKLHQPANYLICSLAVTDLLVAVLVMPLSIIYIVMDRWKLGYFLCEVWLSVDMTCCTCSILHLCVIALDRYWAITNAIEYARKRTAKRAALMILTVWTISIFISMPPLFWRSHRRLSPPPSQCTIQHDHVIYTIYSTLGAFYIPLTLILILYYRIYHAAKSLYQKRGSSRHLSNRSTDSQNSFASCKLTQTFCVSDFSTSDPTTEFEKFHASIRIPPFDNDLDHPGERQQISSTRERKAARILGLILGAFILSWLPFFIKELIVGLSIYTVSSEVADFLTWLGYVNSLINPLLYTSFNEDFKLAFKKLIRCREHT
In assay [4] the target is 5-HT2B (Homo sapiens, UniProt P41595). Nature of the assay: Radioligand binding.
Sequence of 5-HT2B (P41595 whole entry): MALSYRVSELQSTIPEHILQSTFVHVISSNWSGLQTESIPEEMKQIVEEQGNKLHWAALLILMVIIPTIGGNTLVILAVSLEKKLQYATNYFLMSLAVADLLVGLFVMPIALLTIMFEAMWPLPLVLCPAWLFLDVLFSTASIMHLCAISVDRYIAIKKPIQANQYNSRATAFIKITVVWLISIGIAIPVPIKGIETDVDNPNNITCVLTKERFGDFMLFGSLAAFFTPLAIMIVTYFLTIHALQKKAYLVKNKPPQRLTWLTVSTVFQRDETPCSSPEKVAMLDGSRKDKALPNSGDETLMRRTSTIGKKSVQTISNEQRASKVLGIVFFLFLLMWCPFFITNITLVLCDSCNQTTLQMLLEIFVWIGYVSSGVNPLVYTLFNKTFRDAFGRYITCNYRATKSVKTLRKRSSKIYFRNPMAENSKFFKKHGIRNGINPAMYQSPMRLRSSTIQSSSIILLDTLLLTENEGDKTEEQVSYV
Assay [5] addresses β1 (Homo sapiens, UniProt P08588). Nature of the assay: Radioligand binding.
The target in assay [6] is T2, NET (Homo sapiens, UniProt P23975). Nature of the assay: Radioligand binding.
T2 sequence (P23975 whole entry): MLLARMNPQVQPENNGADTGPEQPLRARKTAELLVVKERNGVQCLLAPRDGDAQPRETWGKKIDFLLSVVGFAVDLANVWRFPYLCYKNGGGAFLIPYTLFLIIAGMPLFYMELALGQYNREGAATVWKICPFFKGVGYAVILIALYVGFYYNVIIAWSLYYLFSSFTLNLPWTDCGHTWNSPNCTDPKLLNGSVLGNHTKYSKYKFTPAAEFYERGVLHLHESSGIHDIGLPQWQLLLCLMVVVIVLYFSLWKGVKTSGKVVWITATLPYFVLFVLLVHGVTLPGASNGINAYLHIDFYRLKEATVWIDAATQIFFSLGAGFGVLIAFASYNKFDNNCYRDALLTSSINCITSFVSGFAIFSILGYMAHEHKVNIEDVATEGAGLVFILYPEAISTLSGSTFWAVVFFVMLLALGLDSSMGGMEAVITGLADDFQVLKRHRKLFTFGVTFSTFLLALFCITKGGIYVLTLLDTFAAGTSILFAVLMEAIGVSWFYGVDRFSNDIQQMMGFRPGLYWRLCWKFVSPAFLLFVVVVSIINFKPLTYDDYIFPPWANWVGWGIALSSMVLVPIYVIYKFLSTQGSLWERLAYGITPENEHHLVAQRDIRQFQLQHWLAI
For assay [7], the target named is SERT (Homo sapiens, UniProt P31645). The note with it: HEK cells expressing cloned transporters, cited from earlier work; for release of preloaded [3H]5-HT: at 100 μM, ref Simmler et al. 2014b, Luethi et al. 2017.
Sequence of SERT (P31645 whole entry): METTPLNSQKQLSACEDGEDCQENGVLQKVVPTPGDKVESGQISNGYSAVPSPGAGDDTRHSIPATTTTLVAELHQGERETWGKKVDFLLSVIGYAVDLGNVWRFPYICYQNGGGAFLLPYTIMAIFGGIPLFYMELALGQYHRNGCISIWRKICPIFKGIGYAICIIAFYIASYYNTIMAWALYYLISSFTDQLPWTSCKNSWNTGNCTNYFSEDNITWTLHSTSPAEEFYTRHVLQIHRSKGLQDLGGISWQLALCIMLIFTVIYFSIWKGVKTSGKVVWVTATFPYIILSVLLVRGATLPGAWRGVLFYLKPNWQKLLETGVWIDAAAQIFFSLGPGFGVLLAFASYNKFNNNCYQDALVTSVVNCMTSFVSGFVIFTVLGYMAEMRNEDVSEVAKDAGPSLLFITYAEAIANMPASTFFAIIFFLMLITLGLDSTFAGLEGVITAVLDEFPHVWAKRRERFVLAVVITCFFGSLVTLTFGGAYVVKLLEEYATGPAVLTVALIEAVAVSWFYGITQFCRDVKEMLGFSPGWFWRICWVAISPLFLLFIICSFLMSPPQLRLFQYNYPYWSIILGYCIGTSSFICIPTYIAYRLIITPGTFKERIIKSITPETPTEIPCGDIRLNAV
Assay [8] concerns NET. The settings on record: synaptosomal uptake assay; ref Johnson et al. (1991a); cited from earlier work.
The test system of assay [9] is DAT. The note with it: synaptosomal uptake assay; ref Johnson et al. (1991a); cited from earlier work.
For assay [10], the system named is rats. The note with it: cited from earlier work.
Assay [11] relates to 5-HT receptors. The assay can be described thus: Primary binding assay at 10 μM, 5-HT receptors. More on the design: species or system Human.
Assay [12] addresses DAT (Homo sapiens, UniProt Q01959). The settings on record: HEK cells expressing cloned transporters, cited from earlier work; for release of preloaded [3H]DA: at 100 μM, ref Simmler et al. 2014b, Luethi et al. 2017.
Assay [13] addresses T2, NET. The note with it: HEK cells expressing cloned transporters, cited from earlier work; for release of preloaded [3H]NE: at 100 μM, ref Simmler et al. 2014b, Luethi et al. 2017.

The Ki is a measure of affinity in units of concentration, obtained from inhibition or displacement. Higher therefore signals a looser hold on the target. As usually defined, the EC50 is the midpoint of the concentration-response curve.

Sequence of β1 (P08588 whole entry): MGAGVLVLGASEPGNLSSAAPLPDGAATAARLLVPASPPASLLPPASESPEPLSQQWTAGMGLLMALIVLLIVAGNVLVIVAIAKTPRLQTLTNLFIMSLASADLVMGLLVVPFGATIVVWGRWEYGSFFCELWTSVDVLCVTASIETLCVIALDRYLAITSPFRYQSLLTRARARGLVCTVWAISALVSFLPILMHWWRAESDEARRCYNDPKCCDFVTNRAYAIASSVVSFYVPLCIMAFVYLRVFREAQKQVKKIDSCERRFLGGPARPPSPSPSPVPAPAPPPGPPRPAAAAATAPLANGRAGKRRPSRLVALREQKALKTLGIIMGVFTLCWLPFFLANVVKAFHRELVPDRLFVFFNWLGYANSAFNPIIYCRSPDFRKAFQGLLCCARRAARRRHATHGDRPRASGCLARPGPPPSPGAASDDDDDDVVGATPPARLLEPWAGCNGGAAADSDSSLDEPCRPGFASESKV
Sequence of DAT (Homo sapiens, UniProt Q01959) (Q01959 whole entry): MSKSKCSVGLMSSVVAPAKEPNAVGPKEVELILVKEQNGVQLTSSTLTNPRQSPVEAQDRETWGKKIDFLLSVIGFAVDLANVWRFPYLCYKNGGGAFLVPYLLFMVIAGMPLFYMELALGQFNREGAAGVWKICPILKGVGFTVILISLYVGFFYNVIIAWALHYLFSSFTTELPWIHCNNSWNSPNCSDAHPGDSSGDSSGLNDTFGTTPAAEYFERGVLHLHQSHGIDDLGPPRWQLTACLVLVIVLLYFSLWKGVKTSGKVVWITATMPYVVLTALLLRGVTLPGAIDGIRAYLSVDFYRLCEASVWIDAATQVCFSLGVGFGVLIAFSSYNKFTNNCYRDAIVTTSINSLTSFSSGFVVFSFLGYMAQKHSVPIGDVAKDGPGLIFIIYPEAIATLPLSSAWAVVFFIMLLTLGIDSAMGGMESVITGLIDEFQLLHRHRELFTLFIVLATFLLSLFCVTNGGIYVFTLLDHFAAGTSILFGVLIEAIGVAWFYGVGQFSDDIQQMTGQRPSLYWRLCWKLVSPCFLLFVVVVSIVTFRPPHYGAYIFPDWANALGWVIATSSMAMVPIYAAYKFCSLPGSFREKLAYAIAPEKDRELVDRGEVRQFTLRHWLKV

On to `COc1ccc2c(c1)CC(N)C2` (stereo not shown) [5-MeO-AI, 5-methoxy-2-aminoindan], for which the “fold lower release potency at NET” value in assay [1] was determined as 6 fold. The Ki in [2] is 2500 nM; in assay [3] it was greater than 10 µM; in assay [4], 4.79 µM; in [5], greater than 10 µM; in assay [6] it was greater than 10 µM.
Regarding `COc1cc2c(cc1C)CC(N)C2` (stereo not shown) [MMAI, 5-methoxy-6-methyl-2-aminoindan], in assay [1], the “fold lower release potency at NET” value came out at 100 fold. The Ki was 1080 nM in [2]; greater than 10 µM in assay [3]; 0.902 ± 0.445 µM in assay [4]; greater than 10 µM in [5]; greater than 10 µM in assay [6]. Moreover, in assay [7], the “release of preloaded [3H]5-HT” value is given as “released”. The “fold difference [3H]5-HT uptake IC50 vs [3H]NE uptake IC50” value in assay [8] is reported as 55 fold. The “fold difference [3H]5-HT uptake IC50 vs [3H]DA uptake IC50” value in assay [9] is reported as 93 fold. In assay [10] (ref Marona-Lewicka et al. 1996), the place conditioning effect entry was “conditioned place aversion”.
Turning to `NC1Cc2ccccc2C1` [2-AI, 2-aminoindan], the Ki was greater than 10000 nM in assay [2]; greater than 10 µM in [3]; greater than 10 µM in assay [4]; greater than 10 µM in [5]; greater than 10 µM in assay [6]. The “displacement at 5-HT receptors” value in assay [11] was less than 50%. Besides, the “release of preloaded [3H]DA” value in assay [12] is “induced the release”. In addition, the “release of preloaded [3H]NE” value in assay [13] was “induced the release”.
Regarding `NC1Cc2cc3c(cc2C1)OCO3` [MDAI, 5,6-methylenedioxy-2-aminoindan], the inhibition constant (Ki) in assay [2] was greater than 10000 nM; in [3], greater than 10 µM; in assay [4], greater than 10 µM; in [5], greater than 10 µM; in assay [6], greater than 10 µM. In addition, the “displacement at 5-HT2B receptor” value in assay [4] (at 10 μM, primary binding assay) was less than 50%. Further, in assay [11], the “displacement at 5-HT receptors” value is on record as less than 50%. The “release of preloaded [3H]DA” value in [12] is given as “not affected”. The EC50 in [12] (read-out: release of preloaded [3H]DA EC50, ref Eshleman et al. 2017) was 24 µM; in [13] (read-out: release of preloaded [3H]NE EC50, ref Eshleman et al. 2017), 570 nM; in assay [7] (read-out: release of preloaded [3H]5-HT EC50, ref Eshleman et al. 2017), 2900 nM. For the same compound, the “release of preloaded [3H]NE” value in assay [13] is “released”. Moreover, the “selectivity for 5-HT vs. DA release” value in [7] (ref Eshleman et al. 2017) is given as ~ 10 fold. The “release of preloaded [3H]5-HT” value in assay [7] is “released”. Moreover, in assay [9], the “fold difference [3H]5-HT uptake IC50 vs [3H]DA uptake IC50” value is on record as 10 fold. The place conditioning effect entry in [10] (ref Gatch et al. 2016) was “conditioned place preference”.
